By IC50 is commonly meant the point on the concentration scale where inhibition reaches its midpoint. In general, CC50 refers to the concentration at which the toxic effect on the cells reaches its halfway point. Read a high CC50 as lower toxicity to the cells.

The record followed here is ChEMBL document CHEMBL2021793, “Synthesis, biological evaluation and structure-activity relationships of glycyrrhetinic acid derivatives as novel anti-hepatitis B virus agents” (Bioorg Med Chem Lett, 2012).

The nature of data set [1]: Selectivity index, ratio of CC50 for human HepG2(2.2.15) cells to IC50 for HBV by viral DNA replication detection assay. In kind it is functional.
In data set [2] the test system is Hepatitis B virus. The experiment in a line: Antiviral activity against Hepatitis B virus infected in human HepG2(2.2.15) cells assessed as reduction in hepatitis B surface antigen release. Format: functional, organism-based.
In data set [3] the test system is Hepatitis B virus. The experiment in a line: Antiviral activity against Hepatitis B virus infected in human HepG2(2.2.15) cells assessed as reduction in hepatitis B e-antigen release. Format: functional, organism-based.
Data set [4] has as its system Hepatitis B virus. The experiment in a line: Antiviral activity against Hepatitis B virus infected in human HepG2(2.2.15) cells assessed as reduction in viral DNA replication. In kind it is functional, organism-based.
The nature of data set [5]: Cytotoxicity against human HepG2(2.2.15) cells. Format: cell-based.

SMILES strings stand for the structures.

Turning to `CC1(C)[C@@H](O)CC[C@]2(C)[C@H]3C(=O)C=C4[C@@H]5C[C@@](C)(C(=O)OCc6ccccc6)CC[C@]5(C)CC[C@@]4(C)[C@]3(C)CC[C@@H]12`, the “Ratio CC50/IC50” value in data set [1] stood at 13.1. Besides, the values for the IC50 in the data set with Hepatitis B virus [2], in the data set on Hepatitis B virus [3] and in the data set with Hepatitis B virus [4] were > 2.01 mM, > 2.01 mM and 153 µM, respectively. Also, half-maximal cytotoxicity in data set [5] (CC50) was put at 2.01 mM.
Regarding `CC1(C)[C@@H](O)CC[C@]2(C)[C@H]3C(=O)C=C4[C@@H]5C[C@@](C)(C(=O)OCc6cccc(Cl)c6)CC[C@]5(C)CC[C@@]4(C)[C@]3(C)CC[C@@H]12`, in data set [1], the “Ratio CC50/IC50” value is listed as >3.5. Also, the values for the IC50 with Hepatitis B virus [2], with Hepatitis B virus [3] and with Hepatitis B virus [4] were > 1.85 mM, > 1.85 mM and 529 µM, respectively. Besides, the CC50 in data set [5] is > 1.85 mM.
For the compound `CC1(C)[C@@H](O)CC[C@]2(C)[C@H]3C(=O)C=C4[C@@H]5C[C@@](C)(C(=O)OCc6ccc(I)cc6)CC[C@]5(C)CC[C@@]4(C)[C@]3(C)CC[C@@H]12`, in data set [1], the “Ratio CC50/IC50” value is recorded as >172.6. Also, the IC50 in the data set on Hepatitis B virus [2] was > 0.986 mM; in the data set on Hepatitis B virus [3], > 0.986 mM; in the data set on Hepatitis B virus [4], 5.71 µM. Moreover, the CC50 in data set [5] is > 0.986 mM.
With `CC1(C)[C@@H](O)CC[C@]2(C)[C@H]3C(=O)C=C4[C@@H]5C[C@@](C)(C(=O)OCc6ccc(Br)cc6F)CC[C@]5(C)CC[C@@]4(C)[C@]3(C)CC[C@@H]12`, the “Ratio CC50/IC50” value in data set [1] is recorded as >79. Also, the IC50 is > 0.805 mM in the data set with Hepatitis B virus [2], > 0.805 mM in the data set with Hepatitis B virus [3] and 18.1 µM in the data set on Hepatitis B virus [4]. In addition, the CC50 in data set [5] was > 1.43 mM.
Turning to `CC1(C)[C@@H](O)CC[C@]2(C)[C@H]3C(=O)C=C4[C@@H]5C[C@@](C)(C(=O)OCc6ccc(C(F)(F)F)cc6)CC[C@]5(C)CC[C@@]4(C)[C@]3(C)CC[C@@H]12`, in data set [1], the “Ratio CC50/IC50” value is reported as >255.9. For the same compound, the IC50 was > 1.37 mM with Hepatitis B virus [2], > 1.37 mM in the data set with Hepatitis B virus [3] and 5.36 µM with Hepatitis B virus [4]. Also, the CC50 in data set [5] was > 1.37 mM.
For `CC1(C)[C@@H](O)CC[C@]2(C)[C@H]3C(=O)C=C4[C@@H]5C[C@@](C)(C(=O)OCc6ccc(OC(F)(F)F)cc6)CC[C@]5(C)CC[C@@]4(C)[C@]3(C)CC[C@@H]12`, in data set [1], the “Ratio CC50/IC50” value is on record as >7.1. Besides, the IC50 with Hepatitis B virus [2] was > 1.13 mM; in the data set with Hepatitis B virus [3], > 1.13 mM; with Hepatitis B virus [4] it was 160 µM. Also, in data set [5], the CC50 was > 1.13 mM.
As to `CC1(C)[C@@H](O)CC[C@]2(C)[C@H]3C(=O)C=C4[C@@H]5C[C@@](C)(C(=O)OCc6ccccc6C#N)CC[C@]5(C)CC[C@@]4(C)[C@]3(C)CC[C@@H]12`, in data set [1], the “Ratio CC50/IC50” value is >7.9. Besides, the IC50 in the data set with Hepatitis B virus [2] is > 1.54 mM; with Hepatitis B virus [3] it was > 1.54 mM; with Hepatitis B virus [4] it was 195 µM. Besides, the cytotoxic concentration (CC50) in data set [5] is > 1.54 mM.
For the compound `CC1(C)[C@@H](O)CC[C@]2(C)[C@H]3C(=O)C=C4[C@@H]5C[C@@](C)(C(=O)OCCCCCCO)CC[C@]5(C)CC[C@@]4(C)[C@]3(C)CC[C@@H]12`, in data set [1], the “Ratio CC50/IC50” value amounted to 1.4. Moreover, the IC50 in the data set with Hepatitis B virus [2] is 0.129 mM; with Hepatitis B virus [3], > 1.25 mM; with Hepatitis B virus [4], 47.7 µM. For the same compound, the CC50 in data set [5] is 0.0673 mM.
Turning to `CCOC(=O)COC(=O)[C@@]1(C)CC[C@]2(C)CC[C@]3(C)C(=CC(=O)[C@@H]4[C@@]5(C)CC[C@H](O)C(C)(C)[C@@H]5CC[C@]43C)[C@@H]2C1`, the “Ratio CC50/IC50” value in data set [1] is given as >8.7. Further, the IC50 with Hepatitis B virus [2] was > 1.2 mM; in the data set with Hepatitis B virus [3] it was > 1.2 mM; with Hepatitis B virus [4], 139 µM. The CC50 in data set [5] was > 1.2 mM.
Turning to `CCOC(=O)CCCCCOC(=O)[C@@]1(C)CC[C@]2(C)CC[C@]3(C)C(=CC(=O)[C@@H]4[C@@]5(C)CC[C@H](O)C(C)(C)[C@@H]5CC[C@]43C)[C@@H]2C1`, the “Ratio CC50/IC50” value in data set [1] was 1.2. In addition, the IC50 in the data set with Hepatitis B virus [2] was 0.209 mM; in the data set on Hepatitis B virus [3] it was > 1.75 mM; in the data set with Hepatitis B virus [4], 47.2 µM. Further, half-maximal cytotoxicity in data set [5] (CC50) was put at 0.0547 mM.
